Patent US5688760A, “Polypeptides having bone resorption inhibitory activity comprising PTHrP-derived sequences” (Genentech, Inc., priority 1990, dated 1997)
Non-standard residues stand in square brackets, D forms with d. No end group written: not given here. 2Nal = N[C@@H](Cc1ccc2ccccc2c1)C(=O)O; Aib = CC(C)(N)C(=O)O

Legend:
isolated osteoclasts = experiment: Osteoclast isolation and assay of bone resorption (resorption pits per osteoclast on bovine cortical bone slices); format: cell-based, neonatal female Wistar rats; set-up: key to Activity (bone resorption inhibitory activity), Table 3 Effect of Amino Acid Substitutions: bone resorption inhibitory activity is designated by a "+"; inactivity by "-"; settings: for Activity (bone resorption inhibitory activity), Table 3 Effect of Amino Acid Substitutions: amino acid derivatives of PTHrP (107-111)
Procedure: For example, osteoclasts may be settled on sections of bone and incubated in the presence of, and in the absence of test compounds. Osteoclasts can be determined histochemically and can then be removed following incubation with bone sections by, for example, ultrasonification and the bone surface examined by microscopy to measure resorption pits produced per isolated osteoclasts. The number of resorption pits may be counted and their areas quantitated, for example by digitized morphometry. The variants or derivatives with inhibitory activity on bone resorption will, of course, inhibit the activity of osteoclasts in resorption of bone, which can be readily ascertained by analysis of bone sections. Likewise, variants or derivatives which have no effect in inhibiting bone resorption or which stimulate bone resorption will be evidenced by the formation of resorption pits on bone-sections.
Osteoclasts were isolated from neonatal female Wistar rats by curetting the long bones into culture medium (HEPES-buffered Medium 199 [Trademark Flow Laboratories]). The resulting cell suspension was allowed to settle onto 100 μm thick slices of devitalized bovine cortical bone for 20 minutes before rinsing. After this brief settling period, the majority of contaminating cells are removed in the rinsing step, resulting in a functionally pure population of osteoclasts. The bone slices were then incubated in tissue culture medium (Eagle's Minimum Essential Medium [Flow Laboratories] supplemented, with 100 iU/ml benzylpenicillin 100 μg/ml streptomycin and 10% heat-inactivated fetal bovine serum) at 37° C. in 95% air, 5% CO2, pH 7.3 in the presence or absence of test agents. After 24 hours, the cells were fixed, reacted cytochemically for tartrate-resistant acid phosphatase (TRACP) and the number of multinucleated cells with strong reactions for TRACP (i.e. osteoclasts) counted. The cells were then stripped by ultrasonication in 0.25M NH4 OH prior to processing for scanning electronic microscopy. The entire surface of each bone slice was scanned and the number of resorption pits counted. In selected experiments the depth of the pits are assessed. There was a minimum of 6 replicates for each concentration point for each peptide. Each experiment was repeated at least 3 times. Statistical significance was determined by using Student's t test to compare each treatment with control. Bone resorption can be expressed as pit No./OC/bone slice, total excavated plan area/OC/bone slice, or total excavated volume of bone/OC/bone slice. Such assays are routine and readily amenable to the screening of large numbers of compounds for bone resorption inhibitory activity.

[1] = tested on: Cyclic AMP in osteoclasts; experiment: Cyclic AMP assay in isolated osteoclasts; format: cell-based, rat; settings: osteoclasts pretreated with isobutylmethylxanthine 1 mM, peptide for 10 minutes
Procedure: Recombinant hPTHrP(1-141) and recombinant hPTHrP(1-108) were prepared and purified as previously described (Suva et al., Supra, incorporated herein by reference). hPTHrP(107-139), […]COOH (SEQ ID NO:2), and other peptides were synthesized as carboxy-terminal amides, using an Applied Biosystems Peptide Synthesizer Model 430. Following HF cleavage, peptides were extracted from the resin with 60% (v/v) acetonitrile and 0.1% (v/v) trifluoroacetic acid and lyophilized. The crude peptides were purified by […] (2.5×90 cm column, C18, 20-30 μm. 300 Å resin, Vydac, California) with an acetonitrile gradient in the presence of 0.1% trifluoroacetic acid. The composition of the synthetic peptides was verified by quantitative amino acid analysis using a Beckman 6300 amino acid analyser. Cyclic AMP Assay: Osteoclasts were isolated as described above into 12-well tissue culture plates (Linbro). The cultures were pretreated with isobutylmethylxanthine (1 mM) for 20 minutes prior to administration of test peptides for 10 minutes. Cyclic AMP was extracted with 95% (v/v) ethanol/1 mM HCl and measured by radioimmunoassay. Four to six replicate wells were used in each treatment group.

[2] = In vivo serum calcium levels after intravenous injection in rats; settings: 100 nanograms 100 grams body weight, saline control about 2.58
Procedure: Mammalian serum calcium levels are tightly controlled by homeostatic mechanisms and show little variation. A model peptide, PTHrP 107-139 was injected intraveneously into rats (n=10) in an amount of 100 nanograms 100 grams body weight whereafter serum calcium levels were measured at 30 and 60 minutes by atomic absorption spectrascopy according to standard methods. Control groups of animals were injected with a positive control, calcitonin, which causes a decrease in serum calcium levels, as well as a negative control in the form of saline. Two groups of 10 rats ware used in these controls.

T R C A W P G T C (TRCAWPGTC)
Activity (bone resorption inhibitory activity), Table 3 Effect of Amino Acid Substitutions (isolated osteoclasts): +

T R S npA (TRS[2Nal]; not fully specified (C-terminus); printed as T R S npA) [npA is 3(2-napthyl)alanine]
Activity (bone resorption inhibitory activity), Table 3 Effect of Amino Acid Substitutions (isolated osteoclasts): +

calmon calcitonin [reference compound]
cyclic AMP response [1]: 2.5 fold

calcitonin [reference compound]
serum calcium level at 30 minutes after injection [2]: about 2.35 millimolar

CC1CNCCN1S(=O)(=O)c1cccc2cnccc12 (stereo not shown) [H7, 1-(5-isoquinolinesulfonyl)-2 methyl piperazine, reference compound]
effect of PTHrP(107-139) on osteoclasts in the presence of protein kinase C inhibitor (isolated osteoclasts): blocked

T R SmeA W (TRS[Aib]W; not fully specified (C-terminus); printed as T R SmeA W) [me is α-methyl]
Activity (bone resorption inhibitory activity), Table 3 Effect of Amino Acid Substitutions (isolated osteoclasts): +

Thr Arg Ser Ala Trp Leu Asp Ser Gly Val Thr Gly Ser Gly Leu Glu Gly Asp His Leu Ser Asp Thr Ser Thr Thr Ser Leu Glu Leu Asp Ser Arg-COOH (TRSAWLDSGVTGSGLEGDHLSDTSTTSLELDSR-OH) [PTHrP(107-139)]
cyclic AMP response [1]: no elevation | serum calcium level at 30 minutes after injection [2]: 2.35 millimolar | serum calcium level at 60 minutes after injection [2]: about 2.55 millimolar | inhibition of resorption (pit number/osteoclast number), FIG. 2 (isolated osteoclasts; peptides at 1 nM): substantial inhibition
